A word on the logD: it is lipophilicity at a set pH, counting ionised and neutral species. Higher therefore signals a more lipophilic compound. One may read the logP as a log measure of how a compound divides between an organic and an aqueous phase. A higher logP goes with higher lipophilicity.

This note sets out measurements from the SangsterLogP compilation.

Molecules are shown by their SMILES.

The first data set in a line: method code SF-AS, from DOI: 10.1093/chemse/13.4.619. As to conditions: pH 7.2.
Turning to `COC(=O)c1cccnc1`, the logD was determined as 0.72. Still for that read-out and setting: for `c1ccc(-c2cccnc2)nc1` the value was 1.46; for `O/N=C/c1cccnc1`, 0.68; for `c1ccc(-c2ccncc2)nc1`, 1.58. Same read-out and setting: next, `COC(=O)c1ccccn1`: 0.4.

A short description of another data set: method code SF-AS, from DOI: 10.1021/je700381u. To be noted: pH 0.0.
Take `O=C(O)c1ccc(F)cc1Cl`: the logD was 2.63. On the same count and under the same terms, for `O=C(O)c1ccc(Br)cc1F` the value was 2.67; for `O=C(O)c1ccc(Cl)cc1F`, 2.28; for `O=C(O)c1cc(Br)ccc1Cl`, 3.16. Still for that read-out and setting: for `O=C(O)c1cc(Br)ccc1F` the value was 3.43.

A short description of a further data set: method code SF-AS, from DOI: 10.1111/j.2042-7158.1989.tb06384.x, PMID: 2576447. To be noted: pH 7.4.
`CCCCn1c(=O)n(C)c(=O)c2nc[nH]c21`: the logD turned out to be 1.29. On the same count and under the same terms, for `CCn1c(=O)n(C)c(=O)c2nc[nH]c21` the value was 0.52.

Turning to `CCn1c(=O)[nH]c(=O)c2nc[nH]c21`, the logD is -0.11. Still for that read-out and setting: for `CCCn1c(=O)[nH]c(=O)c2nc[nH]c21` the value was 0.33; for `CCCCn1c(=O)[nH]c(=O)c2nc[nH]c21`, 0.84.

The next data set in a line: method code SF-GLC, from DOI: 10.1080/03086648508073361.
Details: not given
`CCN(CC)P(=O)(N(CC)CC)N(CC)CC` displayed a logP of 2.53. On the same count and under the same terms, next, `CN(C)P1(=O)N(C)CCN1C`: 0.02. On the same count and under the same terms, for `O=P(N1CCCC1)(N1CCCC1)N1CCCC1` the value was 1.67; for `CN(C)P(=O)(N1CCCC1)N1CCCC1`, 1.88; for `CN(C)P(=O)(N(C)C)N1CCCC1`, 0.82.

The nature of the next data set: method code SF-AS, from DOI: 10.1016/s0003-2670(01)80868-0.
Details: not given
The molecule `CC(=O)CC(=O)C(C)(C)C` returned a logP of 1.67. Still for that read-out and setting: next, `CCCC(=O)CC(=O)CCC`: 2.23; `CCC(=O)CC(=O)CC`: 1.12; `CC(=O)CC(C)=O`: 0.14. Same read-out and setting: for `CC(C)C(=O)CC(=O)C(C)C` the value was 2.22.

Assay in another data set: not given
Details: not given
`O=c1cc(-c2ccccc2)oc2c1ccc1ccccc12`: the logP came to 4.82. Same read-out and setting: for `Brc1ccsc1` the value was 2.59; for `O=[N+]([O-])c1ccc(O)c([N+](=O)[O-])c1`, 1.79. Same read-out and setting: for `Cc1cc(C)c(C)cc1C` the value was 4.24; for `c1ccc(-c2ccc(-c3ccccc3)cc2)cc1`, 6.03.

The next data set in a line: method code SF-AS, from DOI: 10.1007/bf00165040, PMID: 3033523. To be noted: pH 7.4.
The molecule `Nc1ncnc2c1nc(Sc1ccccc1)n2C1OC2COP(=O)(OCc3ccccc3)OC2C1O` (stereo unspecified) displayed a logD of 1.92. Still for that read-out and setting: next, `CSc1nc2c(N)ncnc2n1C1OC2COP(=O)(OCc3ccccc3)OC2C1O` (stereo unspecified): 1.62; `Nc1ncnc2c1nc(Sc1ccc(Cl)cc1)n2C1OC2COP(=O)(OCc3ccccc3)OC2C1O` (stereo unspecified): 2.24; `Nc1ncnc2c1nc(SCc1ccccc1)n2[C@@H]1O[C@@H]2COP(=O)(O)O[C@H]2[C@H]1O`: -1.15. Same read-out and setting: next, `CC(C)(C)Sc1nc2c(N)ncnc2n1C1OC2COP(=O)(Oc3ccccc3)OC2C1O` (stereo unspecified): 2.05; `Nc1ncnc2c1nc(Br)n2C1OC2COP(=O)(Oc3ccccc3)OC2C1O` (stereo unspecified): 1.58.

Assay in another data set: not given
Details: not given
This is another data set of the same source.
`CCCCCCN1C(=O)NC(Cc2c[nH]c3ccccc23)C1=O` (stereo unspecified) registered a logP of 3.13. Regarding `O=C1NC(Cc2c[nH]c3ccccc23)C(=O)N1Cc1cccc2ccccc12` (stereo unspecified), the logP was found to be 3.03. On the same count and under the same terms, next, `CCCN1C(=O)NC(c2ccccc2)(c2ccccc2)C1=O`: 2.86. The same measure, in the same setting: next, `CCCCCCN1C(=O)NC(c2ccc(Br)cc2)(c2ccc(Br)cc2)C1=O`: 6.39; `CCCCCCCN1C(=O)NC(c2ccc(Br)cc2)(c2ccc(Br)cc2)C1=O`: 6.95. In turn, `O=C1NC(c2ccc(Br)cc2)(c2ccc(Br)cc2)C(=O)N1CCN1CCOCC1` had a logP of 4.59.

Assay in another data set: not given
Details: not given
The source holds these as a separate data set.
`Cc1ccc([N+](=O)[O-])cc1C` had a logP of 2.91. Molecule `O=[N+]([O-])c1cccc(Cl)c1Cl` showed a logP of 3.01. Still for that read-out and setting: for `O=[N+]([O-])c1cc(Cl)cc(Cl)c1` the value was 3.13.

`Cc1ccc(Cl)cc1[N+](=O)[O-]` had a logP of 3.05. The same measure, in the same setting: next, `Cc1cccc([N+](=O)[O-])c1C`: 2.83.

The nature of the next data set: method code SF-GLC, from DOI: 10.1016/s0045-6535(02)00841-x, PMID: 12615110.
Details: not given
The molecule `Brc1ccc(Oc2ccc(Br)c(Br)c2Br)c(Br)c1` registered a logP of 7.37. On to `Brc1ccc(Oc2ccc(Br)cc2Br)cc1`, for which the logP turned out to be 5.94. The same measure, in the same setting: for `Brc1cc(Br)c(Oc2cc(Br)c(Br)cc2Br)cc1Br` the value was 7.9; for `Brc1ccc(Oc2ccccc2Br)c(Br)c1`, 5.74. On the same count and under the same terms, for `Brc1ccc(Oc2cc(Br)c(Br)cc2Br)c(Br)c1` the value was 7.32.

Assay in the next data set: not given
Details: not given
The source holds these as a separate data set.
The molecule `CC(C)CC(N)=O` returned a logP of 0.19. The same measure, in the same setting: for `CC(O)CCO` (stereo unspecified) the value was -0.79; for `OCCCCCO`, -0.43; for `CCC(C)(C)N`, 0.9.

`CC(C)(O)C(C)(C)O` registered a logP of -0.05.

Assay in the next data set: not given
Details: not given
The source holds these as a separate data set.
Turning to `Cc1ccc(Cl)cc1`, the logP turned out to be 3.42. The same measure, in the same setting: next, `Nc1ccccc1Cl`: 1.74. `Cc1c(Cl)cccc1Cl` gave a logP of 4.29. `ClC(Cl)(Cl)C(Cl)(Cl)Cl` showed a logP of 3.82. Still for that read-out and setting: next, `Nc1cc(Cl)c(Cl)c(Cl)c1Cl`: 3.94.

The nature of a further data set: method code SF-AS, from DOI: 10.1021/jm00254a011, PMID: 4845376.
Details: not given
On to `CSC1=NCCN1c1ncc([N+](=O)[O-])s1`, for which the logP was determined as 1.78. The molecule `O=C1NCCN1c1ncc([N+](=O)[O-])s1` showed a logP of 0.91. Still for that read-out and setting: for `CSC1=NCCN1c1ccc([N+](=O)[O-])o1` the value was 1.19; for `O=[N+]([O-])c1cnc(N2CCNC2=S)s1`, 1.7; for `O=C1NCCN1c1ccc([N+](=O)[O-])o1`, 0.25.

Assay in a further data set: not given
Details: not given
The source holds these as a separate data set.
The molecule `C=C(C)C(=O)OCC(C)(C)COC(=O)C(=C)C` displayed a logP of 2.79. As to `C=C(C)C(=O)OCCOC(=O)C(=C)C`, the logP is 1.22.

On to `C=C(C)C(=O)OCC(F)(F)F`, for which the logP came out at 1.56. As to `C=C(C)C(=O)OCCCCCCCC(C)C`, the logP came out at 4.92. The same measure, in the same setting: next, `C=C(C)C(=O)OCCCOC(=O)C(=C)C`: 1.86.

Assay in the next data set: not given
Details: not given
This is another data set of the same source.
Molecule `O=C(CCCCN1CCC(O)(c2ccc(Cl)cc2)CC1)c1ccc(F)cc1` returned a logP of 3.81. In the case of `O=C(CCCCCN1CCC(O)(c2ccc(Cl)cc2)CC1)c1ccc(F)cc1`, the logP stood at 4.16. On the same count and under the same terms, for `OC1(c2ccc(Cl)cc2)CCN(CCCSc2ccc(F)cc2)CC1` the value was 4.17; for `O=C(CCN1CCC(O)(c2ccc(Cl)cc2)CC1)c1ccc(F)cc1`, 3.24; for `CC(C)c1ccc(C(=O)CCCN2CCC(O)(c3ccc(Cl)cc3)CC2)cc1`, 4.2.

Consider `OC(CCCN1CCC(O)(c2ccc(Cl)cc2)CC1)c1ccc(F)cc1` (stereo unspecified), for which the logP was 3.26.

Assay in a further data set: not given
Details: not given
This is another data set of the same source.
With `O=C(O)c1ccc([N+](=O)[O-])cc1Cl`, the logP worked out at 2.19. On the same count and under the same terms, for `N#Cc1ccc(O)cc1` the value was 1.28; for `OCc1ccc(Cl)cc1`, 1.99.

The molecule `O=[N+]([O-])c1cc(-c2ccccc2)ccc1Br` displayed a logP of 4.82. Still for that read-out and setting: for `O=C(O)c1cc([N+](=O)[O-])ccc1Cl` the value was 2.13.

The next data set in a line: from Pratesi, P.; Villa, L.; Ferri, V.; DeMicheli, C.; Grana, E.; Grieco, C.; Silipo, C.; Vittoria, A. (1979). On the additive-constitutive properties of substituent hydrophobic parameters in a set of ….
Details: not given
On to `CC(=O)CCC(=O)O`, for which the logP was -0.49. Still for that read-out and setting: for `c1ccc(C2CO2)cc1` (stereo unspecified) the value was 1.84; for `C=CC#N`, 0.25.

Take `OCCNc1ccccc1`: the logP was determined as 0.82. Still for that read-out and setting: for `O=C(O)CCCC(=O)O` the value was -0.29.

A further data set is described as follows: method code SF-RC, from DOI: 10.1021/jm301492y, PMID: 23214511. As to conditions: pH 7.4.
The molecule `O=C(NC1CCCC1)c1cccc(C2=NCCO2)c1` returned a logD of 2.35.

With `O=C(NC1CCC1)c1ccc(O)c(-c2ccccc2)c1`, the logD came out at 3.42.

Take `NC(=O)c1cccc(-c2cccc(C(=O)NC3CCCCC3)c2)c1`: the logD is 3.61.

`O=C(NC1CCCC1)c1ccc(O)c(-c2ccccc2)c1` showed a logD of 2.8. The same measure, in the same setting: next, `O=C(NC1CCCCC1)c1cccc(C2=NCCO2)c1`: 3.01; `CCCCCCNC(=O)c1cccc(C2=NCCO2)c1`: 3.33.

Assay in the next data set: not given
Details: not given
The source holds these as a separate data set.
In the case of `CC(=O)N(CCO)c1c(I)c(C(=O)NCC(O)CO)c(I)c(C(=O)NCC(O)CO)c1I` (stereo unspecified), the logP is -2.4. The same measure, in the same setting: next, `CC(=O)N(CC(O)CO)c1c(I)c(C(=O)NCCO)c(I)c(C(=O)NCCO)c1I` (stereo unspecified): -1.84.
